{"source": "patent US6288028A", "about": "“BPC peptide salts with organo-protective activity, the process for their preparation and their use in therapy” (priority 1997, dated 2001)", "key": {"[1]": {"system": "Pulmonary Hypertension Syndrome (PHS) and tissue lesions", "assay": "Pulmonary Hypertension Syndrome, acute and chronic toxicity", "format": "in vivo, chicks", "conditions": "for tissue or organ damage (pathohistology): acute and chronic toxicity", "protocol": "The present experiments describe the effects of nitric oxide (NO) agonists and antagonists and the influence of NaBPC157 on the development of Pulmonary Hypertension Syndrome (PHS) and tissue lesions in chicks. Experiments investigating acute toxicity were conducted. These included single dose applications of saline (1 ml i.p.), NaBPC157 (10 μg/kg b.w.), L-NAME (NO antagonist/doses 50, 100, 150 mg/kg b.w.) and L-arginine (NO agonist/100 mg/kg b.w./with their combination (L-NAME+NaBPC157, L-NAME+L-arginine)). Pathohistological examinations of the spleen, heart, liver and lungs and hematological analyses were conducted. Furthermore, chronic toxicity experiments were conducted. The animals were treated daily during five weeks with L-NAME (10 mg/kg b.w.), L-arginine (100 mg/kg b.w.), NaBPC157 (10 μg/kg b.w.) and their combinations (L-NAME+NaBPC157, L-NAME+L-arginine) intraperitoneally. Seven animals from each group including controls (saline 1 ml i.p.) were sacrificed every week."}, "[2]": {"system": "gastric lesions (96% ethanol)", "assay": "Ethanol gastric lesions, NO-system", "format": "in vivo, rats", "conditions": "for effect on ethanol gastric lesions, agent given alone: NaBPC157 10 μg or 10 ng/kg i.p. with 96% ethanol i.g., 1 hour, L-NAME 5 mg/kg i.v., L-arginine 200 mg/kg i.v. 5 minutes before", "protocol": "Some of the effects of NaBPC157 (10 μg or 10 ng/kg) were challenged in rats, such as the salutary activity against gastric lesions and NaBPC157's activity with respect to blood pressure maintenance. The lesions were obtained by using a 1 hour ethanol treatment (96%, i.g. (intragastrically)). NaBPC157 was simultaneously applied (i.p. (intraperitoneally)). In the blood pressure maintenance experiment, NaBPC157 was given intravenously (i.v.).\nAlso studied was the combined application of N^G -nitro-L-arginine methylester (L-NAME) (5 mg/kg i.v.), a competitive inhibitor of endothelium nitric oxide (NO)-generation and the NO-precursor L-arginine (200 mg/kg i.v.) (D-arginine was ineffective). In the gastric lesion assays, the NO-agents were given 5 minutes before the ethanol injury and the treatment with NaBPC157."}, "[3]": {"system": "mobility in chronically stressed rats", "assay": "Chronic unpredictable stress, open field-immobility test", "format": "in vivo, rat", "conditions": "NaBPC157 10 μg, 10 ng; imipramine 30 mg; once daily", "source_text": "Various antidepressants have antiulcer activity and the models currently used in ulcer and depression research share a considerable degree of similarity. Therefore, the possibility that depression disorders could be effectively influenced by a primary antiulcer agent with cyto-/organo-protective activity such as NaBPC157 was investigated in two rat depression assays: the forced swimming test (a Porsolt's procedure) and the chronic unpredictable stress method (after five days of unpredictable stress protocol, once-daily drug application during the stress procedure and an open field-immobility test assessment at fourth and sixth days of medication)."}, "restraint stress lesions": {"system": "restraint stress lesions", "assay": "48 hour-restraint stress ulcer model", "format": "in vivo, rats", "protocol": "(§1) The effects of NaBPC157 (10 μg or 10 ng/kg i.p., i.g.) were investigated in rats in comparison with several reference standards in several experimental ulcer models (48 hour-restraint stress, subcutaneous cysteamine, intragastrical 96% ethanol ulcer tests, NSAIAs-lesions, DNFB (Dinitrofluorhenzene), reflux esophagitis following esophagojejunal termino-lateral anastomosis) (pre-/co-/post-treatment)."}, "[4]": {"system": "portal blood pressure, organ lesions", "assay": "Chronic alcohol intoxication", "format": "in vivo, Male Albino Wistar rats", "conditions": "alcohol for three months; NaBPC157 10 μg, 10 ng/kg; propranolol, ranitidine 10 mg/kg b.w.", "protocol": "The effects of NaBPC157 on chronic alcohol intoxication were examined. Male Albino Wistar rats were used for these experiments. The rats were drinking either commercial whiskey or ethanol (10-20% water solution) for three months. The application of NaBPC157 (10 μg, 10 ng/kg b.w.), propranolol (10 mg/kg b.w.), and ranitidine (10 mg/kg b.w.) (control rats received an equivolume of saline 5.0 ml/kg), either intragastrically or intraperitoneally, was conducted either prophylactically (10 days before alcohol initiation) or as a co-treatment together with alcohol or therapeutically (starting at the end of a two month period, i.e. during the last month of the experiment)."}, "[5]": {"system": "diazepam tolerance and withdrawal", "assay": "Diazepam tolerance and physical dependence, isoniazid latencies", "design": "species or system mice", "conditions": "mouse, in vivo", "protocol": "In tolerance assays forty-two hours after the conditioning regimen, shorter preconvulsive latencies than that in healthy mice following an isoniazid treatment (800 mg/kg i.p.) were observed if diazepam (5.0 mg/kg i.p.) was given again to mice previously conditioned with diazepam alone. […] In this group at six hour intervals, unlike in diazepam conditioned mice, isoniazid preconvulsive latencies were still longer than in corresponding controls."}, "Toxicity observations": {"assay": "Toxicity observations", "format": "in vivo", "conditions": "high dosages (e.g. g/kg b.w., i.p.)"}, "[6]": {"system": "amphetamine stereotyped behavior", "assay": "Amphetamine stereotypes and excitability", "format": "in vivo, rats", "conditions": "no amphetamine", "protocol": "The effects of NaBPC157 on the dopamine agonist amphetamine (10 mg/kg i.p.) stereotypes and on excitability were studied. NaBPC157 was applied as a prophylactic co-treatment or therapeutic salutary regimen (10 μg or 10 ng/kg i.p.). The stereotyped behaviour and excitability was induced in rats."}, "cysteamine ulcer": {"system": "cysteamine ulcer", "assay": "Subcutaneous cysteamine ulcer test", "format": "in vivo, rats", "conditions": "reference peptides"}, "ethanol ulcer": {"system": "ethanol ulcer", "assay": "Intragastrical 96% ethanol ulcer test", "format": "in vivo, rats", "conditions": "reference peptides; related to treatment conditions"}, "DNFB-intestinal lesions": {"system": "DNFB-intestinal lesions", "assay": "DNFB-intestinal lesions", "design": "species or system rats", "conditions": "rat, in vivo", "protocol": "as §1"}, "reflux esophagitis": {"system": "reflux esophagitis", "assay": "Reflux esophagitis after esophagojejunal anastomosis", "design": "species or system rats", "conditions": "rat, in vivo", "protocol": "as §1"}}, "note": "Where no end group is shown, it is not given here.", "data": [{"compound": "N=C(N)NCCC[C@H](N)C(=O)O", "note": "[L-arginine]", "values": [{"measurement": "tissue or organ damage (pathohistology)", "setting": "[1]", "value": "provoked predominantly congestion, edema and hemorrhages in all organs"}, {"measurement": "inhibition of the effects of L-NAME", "setting": "[1]; in vivo", "value": "successfully inhibited"}, {"measurement": "prevention of L-NAME-caused PHS", "setting": "[1]; simultaneous application, L-arginine 100 mg/kg, NaBPC157 10 μg/kg b.w.", "value": "prevented"}, {"measurement": "antiulcer activity after L-NAME", "setting": "[2]; L-NAME 5 mg/kg i.v. 5 minutes before ethanol", "value": "completely abolished"}, {"measurement": "effect on ethanol gastric lesions, agent given alone", "setting": "[2]", "value": "antiulcer effect"}]}, {"compound": "COC(=O)[C@@H](N)CCCNC(=N)N[N+](=O)[O-]", "note": "[L-NAME, N^G -nitro-L-arginine methylester]", "values": [{"measurement": "induction of PHS", "setting": "[1]; L-NAME", "value": "caused PHS"}, {"measurement": "tissue or organ damage (pathohistology)", "setting": "[1]", "value": "caused severe tissue damage"}, {"measurement": "hematological analyses", "setting": "[1]; in vivo", "value": "significant hemoglobin and leukocyte number decreases"}, {"measurement": "effect on ethanol gastric lesions, agent given alone", "setting": "[2]", "value": "had no effect"}]}, {"compound": "CN(C)CCCN1c2ccccc2CCc2ccccc21", "note": "[imipramine]", "values": [{"measurement": "mobility in chronic unpredictable stress", "setting": "[3]", "value": "failure of imipramine activity"}]}, {"compound": "CN/C(=N/CCSCc1nc[nH]c1C)NC#N", "note": "[cimetidine]", "values": [{"measurement": "effect in restraint stress", "setting": "restraint stress lesions", "value": "ineffective"}]}, {"compound": "NC12CC3CC(CC(C3)C1)C2", "note": "[amatadine]", "values": [{"measurement": "effect in restraint stress", "setting": "restraint stress lesions", "value": "ineffective"}]}, {"compound": "CC(C)NCC(O)COc1cccc2ccccc12", "note": "(stereo not drawn) [propranolol]", "values": [{"measurement": "portal blood pressure", "setting": "[4]", "value": "markedly prevented and/or decreased"}]}, {"compound": "GEPPPGKPADDAGLV [NaBPC157, Monosodium Salt of BPC157]", "values": [{"measurement": "tissue or organ damage (pathohistology)", "setting": "[1]", "value": "did not cause any tissue or organ damage"}, {"measurement": "tolerance effect of the agent itself", "setting": "[5]", "value": "does not produce any tolerance effect"}, {"measurement": "influence on basal parameters", "setting": "Toxicity observations", "value": "No influence on different basal parameters"}, {"measurement": "toxicity at high dosages", "setting": "Toxicity observations", "value": "no toxicity"}, {"measurement": "gross behavior, agent alone", "setting": "[6]", "value": "does not affect gross behavior or induce stereotypes"}]}, {"compound": "NPY", "values": [{"measurement": "protection, cysteamine", "setting": "cysteamine ulcer", "value": "dose-dependent protection"}, {"measurement": "effect, ethanol", "setting": "ethanol ulcer", "value": "partial positive effect"}]}, {"compound": "secretin", "values": [{"measurement": "protection, cysteamine", "setting": "cysteamine ulcer", "value": "dose-dependent protection"}, {"measurement": "effect, ethanol", "setting": "ethanol ulcer", "value": "partial positive effect"}]}, {"compound": "NC(N)=Nc1nc(CSCCC(N)=NS(N)(=O)=O)cs1", "note": "[famotidine]", "values": [{"measurement": "effect in restraint stress", "setting": "restraint stress lesions", "value": "ineffective"}]}, {"compound": "CC(C)C[C@H]1C(=O)N2CCC[C@H]2[C@]2(O)O[C@](NC(=O)[C@@H]3C=C4c5cccc6[nH]c(Br)c(c56)C[C@H]4N(C)C3)(C(C)C)C(=O)N12", "note": "[bromocriptine]", "values": [{"measurement": "effect on DNFB-intestinal lesions", "setting": "DNFB-intestinal lesions", "value": "only partially effective"}, {"measurement": "effect in restraint stress", "setting": "restraint stress lesions", "value": "ineffective"}]}, {"compound": "N=C(N)NCCC[C@@H](N)C(=O)O", "note": "[D-arginine]", "values": [{"measurement": "effect on ethanol gastric lesions, agent given alone", "setting": "[2]", "value": "ineffective"}]}, {"compound": "C[C@H](N)C(=O)NCC(=O)N[C@H]1CSSC[C@@H](C(=O)O)NC(=O)[C@H](CO)NC(=O)[C@H]([C@@H](C)O)NC(=O)[C@H](Cc2ccccc2)NC(=O)[C@H]([C@@H](C)O)NC(=O)[C@H](CCCCN)NC(=O)[C@H](Cc2c[nH]c3ccccc23)NC(=O)[C@H](Cc2ccccc2)NC(=O)[C@H](Cc2ccccc2)NC(=O)[C@H](CC(N)=O)NC(=O)[C@H](CCCCN)NC1=O", "note": "[somatostatin]", "values": [{"measurement": "effect in restraint stress", "setting": "restraint stress lesions", "value": "ineffective"}]}, {"compound": "sucralfate", "values": [{"measurement": "effect on reflux esophagitis", "setting": "reflux esophagitis", "value": "only partially effective"}]}, {"compound": "CNC(=C[N+](=O)[O-])NCCSCc1ccc(CN(C)C)o1", "note": "[ranitidine]", "values": [{"measurement": "effect on reflux esophagitis", "setting": "reflux esophagitis", "value": "only partially effective"}, {"measurement": "portal blood pressure", "setting": "[4]", "value": "even more increased portal pressure values"}]}]}
